From ChEMBL document CHEMBL1201862, “PubChem BioAssay data set” (2004)
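A five-concentration, 48-hour dose response in 96-well plates underlies each endpoint, interpolated linearly between surrounding concentrations. GI50 is the concentration that inhibits growth by half.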 The source made the active and inactive calls. No stated cut-off is given here; in the data, active = GI50 up to about 1.1 µM and inactive = higher.

What was measured:
Assay in all cases: growth of human tumour cells (NCI), 48 h
786-0 = tested on: 786-0
A498 = tested on: A498
A549 = tested on: A549
BT-549 = tested on: BT-549
DU-145 = tested on: DU-145
HCT-116 = tested on: HCT-116
HOP-92 = tested on: HOP-92
M14 = tested on: M14
NCI-H226 = tested on: NCI-H226
NCI-H23 = tested on: NCI-H23
NCI-H460 = tested on: NCI-H460
OVCAR-3 = tested on: OVCAR-3
PC-3 = tested on: PC-3
RXF 393 = tested on: RXF 393
SF-539 = tested on: SF-539
SK-MEL-5 = tested on: SK-MEL-5
SNB-75 = tested on: SNB-75
U-251 = tested on: U-251
MDA-MB-435 = tested on: MDA-MB-435
UACC-62 = tested on: UACC-62

Compound | GI50 (786-0) | GI50 (A498) | GI50 (A549) | GI50 (BT-549) | GI50 (DU-145) | GI50 (HCT-116) | GI50 (HOP-92) | GI50 (M14) | GI50 (NCI-H226) | GI50 (NCI-H23) | GI50 (NCI-H460) | GI50 (OVCAR-3) | GI50 (PC-3) | GI50 (RXF 393) | GI50 (SF-539) | GI50 (SK-MEL-5) | GI50 (SNB-75) | GI50 (U-251) | GI50 (MDA-MB-435) | GI50 (UACC-62)
Cc1cc(S(=O)(=O)Nc2nc(N)nc(N(C)C)n2)c(S)cc1Cl | > 10 µM (inactive) | > 10 µM (inactive) | > 10 µM (inactive) | > 10 µM (inactive) | > 10 µM (inactive) | > 10 µM (inactive) | > 10 µM (inactive) | > 10 µM (inactive) | > 10 µM (inactive) | > 10 µM (inactive) | > 10 µM (inactive) | > 10 µM (inactive) | > 10 µM (inactive) | > 10 µM (inactive) | > 10 µM (inactive) | > 10 µM (inactive) | > 10 µM (inactive) | > 10 µM (inactive) | – | –
C=C1C(=O)OC2C1CCC(C)C1(O)C=CC(=O)C21C (stereo not drawn) | 6.11 µM (inactive) | 5.46 µM (inactive) | > 10 µM (inactive) | – | – | 5.04 µM (inactive) | 3.33 µM (inactive) | – | > 10 µM (inactive) | 7.69 µM (inactive) | > 10 µM (inactive) | 4.9 µM (inactive) | > 10 µM (inactive) | 9.31 µM (inactive) | > 10 µM (inactive) | > 10 µM (inactive) | 6.65 µM (inactive) | > 10 µM (inactive) | > 10 µM (inactive) | 6.68 µM (inactive)
COc1ccc(C(=O)O/N=C2/CCC/C2=C\c2ccccc2)cc1 | > 72.3 µM (inactive) | > 100 µM (inactive) | > 100 µM (inactive) | – | – | > 100 µM (inactive) | > 100 µM (inactive) | > 100 µM (inactive) | > 100 µM (inactive) | > 100 µM (inactive) | > 100 µM (inactive) | > 100 µM (inactive) | – | > 83 µM (inactive) | > 59.3 µM (inactive) | > 100 µM (inactive) | > 43.3 µM (inactive) | > 70.3 µM (inactive) | – | > 100 µM (inactive)
COC(=O)[C@@H]1CCCN1CCN1CCC[C@H]1C(=O)OC | > 100 µM (inactive) | > 100 µM (inactive) | > 100 µM (inactive) | – | > 100 µM (inactive) | > 100 µM (inactive) | > 100 µM (inactive) | > 100 µM (inactive) | – | > 100 µM (inactive) | > 100 µM (inactive) | > 100 µM (inactive) | > 100 µM (inactive) | > 100 µM (inactive) | > 100 µM (inactive) | > 100 µM (inactive) | – | > 100 µM (inactive) | > 100 µM (inactive) | > 100 µM (inactive)
CCOC(=O)/C(=C\c1ccc(O)c(OC)c1)C(=O)c1ccccc1 | 16.7 µM (inactive) | 17 µM (inactive) | 18.2 µM (inactive) | – | 23.1 µM (inactive) | 10.6 µM (inactive) | 21.3 µM (inactive) | 19.1 µM (inactive) | 23.2 µM (inactive) | 8.22 µM (inactive) | 22.2 µM (inactive) | 26.9 µM (inactive) | – | 22.7 µM (inactive) | 13.8 µM (inactive) | 13.3 µM (inactive) | 20.2 µM (inactive) | 13.5 µM (inactive) | – | 13.7 µM (inactive)
C[C@@]12c3c4ccc(C=O)c3Oc3ccc(C=O)c(c31)Oc1c(C=O)ccc(c12)O4 | > 100 µM (inactive) | 31.5 µM (inactive) | > 100 µM (inactive) | > 100 µM (inactive) | – | > 100 µM (inactive) | 0.565 µM (active) | > 100 µM (inactive) | > 100 µM (inactive) | > 100 µM (inactive) | > 100 µM (inactive) | > 100 µM (inactive) | > 100 µM (inactive) | – | > 100 µM (inactive) | > 100 µM (inactive) | > 100 µM (inactive) | > 100 µM (inactive) | > 100 µM (inactive) | > 100 µM (inactive)
COc1ccc(/C=C/c2ccnc3ccccc23)cc1OC | 44.3 µM (inactive) | 11.5 µM (inactive) | 15.1 µM (inactive) | – | 13.7 µM (inactive) | 12.6 µM (inactive) | – | 20 µM (inactive) | 22.9 µM (inactive) | 14.9 µM (inactive) | 15.2 µM (inactive) | 12.5 µM (inactive) | 15.8 µM (inactive) | 13.1 µM (inactive) | 15.8 µM (inactive) | 14.8 µM (inactive) | – | 46.9 µM (inactive) | 15.1 µM (inactive) | 14.9 µM (inactive)
C[C@@]1(OC(=O)c2cc([N+](=O)[O-])cc([N+](=O)[O-])c2)C[C@@H]2CCCC[C@@H]21 | > 100 µM (inactive) | – | > 100 µM (inactive) | > 100 µM (inactive) | > 100 µM (inactive) | > 100 µM (inactive) | – | > 100 µM (inactive) | > 100 µM (inactive) | > 100 µM (inactive) | > 100 µM (inactive) | – | > 100 µM (inactive) | – | > 100 µM (inactive) | 83.8 µM (inactive) | 48.2 µM (inactive) | > 100 µM (inactive) | – | > 100 µM (inactive)
CC(=O)c1c(N=[N+]=[N-])c2cccc3c2n(c1=O)CCC3 | 14.7 µM (inactive) | 21.3 µM (inactive) | 29 µM (inactive) | 20.4 µM (inactive) | – | 15.6 µM (inactive) | 31.8 µM (inactive) | 13.6 µM (inactive) | 22.9 µM (inactive) | 20.8 µM (inactive) | 14.4 µM (inactive) | 4.21 µM (inactive) | 17.3 µM (inactive) | 20.5 µM (inactive) | 27.9 µM (inactive) | 14.7 µM (inactive) | 24.8 µM (inactive) | 17.3 µM (inactive) | 19.1 µM (inactive) | 16.5 µM (inactive)
Cc1sc(N/N=C2\C(=O)Nc3ccccc32)nc1-c1ccccc1 | 17.4 µM (inactive) | 15.1 µM (inactive) | 14.8 µM (inactive) | 16.3 µM (inactive) | 11.6 µM (inactive) | 12.4 µM (inactive) | 23 µM (inactive) | 16 µM (inactive) | 33.3 µM (inactive) | 16.6 µM (inactive) | 10.2 µM (inactive) | 12.6 µM (inactive) | – | 15.8 µM (inactive) | 18.8 µM (inactive) | 12.6 µM (inactive) | 19.7 µM (inactive) | 11 µM (inactive) | 19.6 µM (inactive) | 13.7 µM (inactive)
CCOC(=O)C(=O)/C(=C/n1c(=S)[nH]c2ccc([N+](=O)[O-])cc21)C(=O)OCC | > 100 µM (inactive) | > 100 µM (inactive) | > 100 µM (inactive) | – | > 100 µM (inactive) | > 100 µM (inactive) | > 100 µM (inactive) | > 100 µM (inactive) | 60 µM (inactive) | > 100 µM (inactive) | > 100 µM (inactive) | > 100 µM (inactive) | > 100 µM (inactive) | > 100 µM (inactive) | > 100 µM (inactive) | 65.5 µM (inactive) | 90.4 µM (inactive) | > 100 µM (inactive) | > 100 µM (inactive) | > 100 µM (inactive)
CC(C)c1cccc(C(C)C)c1N1C(=O)C(=O)C(c2nc3ccccc3o2)C(=O)C1=O | 14.4 µM (inactive) | > 100 µM (inactive) | > 100 µM (inactive) | – | – | 25.8 µM (inactive) | 33.3 µM (inactive) | 55.8 µM (inactive) | 19.2 µM (inactive) | 29.6 µM (inactive) | > 100 µM (inactive) | 33.7 µM (inactive) | – | 92.3 µM (inactive) | > 100 µM (inactive) | 38.5 µM (inactive) | 26.2 µM (inactive) | > 100 µM (inactive) | – | 71.6 µM (inactive)
COc1cc(Cc2nccc3cc(OC)c(OC)cc23)c(/N=N/N(C)C)cc1OC | 4 µM (inactive) | – | 23.4 µM (inactive) | 18.2 µM (inactive) | 17.5 µM (inactive) | 5.08 µM (inactive) | – | 17.5 µM (inactive) | 20.4 µM (inactive) | 19.3 µM (inactive) | 7.23 µM (inactive) | 15.5 µM (inactive) | 10.7 µM (inactive) | 2.99 µM (inactive) | – | 12.1 µM (inactive) | 34 µM (inactive) | 19.1 µM (inactive) | 18.5 µM (inactive) | 13.2 µM (inactive)
S=C1CC(c2ccccc2)Sc2cc(Cl)ccc2N1 (stereo not drawn) | 5.42 µM (inactive) | – | 5.68 µM (inactive) | 8.79 µM (inactive) | > 100 µM (inactive) | 3.03 µM (inactive) | – | 3.12 µM (inactive) | 14.2 µM (inactive) | 5.41 µM (inactive) | 6.59 µM (inactive) | 2.49 µM (inactive) | 1.87 µM (inactive) | 6.55 µM (inactive) | – | 5.64 µM (inactive) | 5.24 µM (inactive) | 4.26 µM (inactive) | 0.723 µM (active) | 5.56 µM (inactive)
O=Cc1cc2c(s1)C(=O)c1sccc1C2=O | 1.03 µM (active) | 1.37 µM (inactive) | 0.813 µM (active) | – | 0.18 µM (active) | 0.256 µM (active) | 1.46 µM (inactive) | 0.0403 µM (active) | 1.79 µM (inactive) | 0.191 µM (active) | 1.32 µM (inactive) | 0.222 µM (active) | 2.08 µM (inactive) | 0.337 µM (active) | 0.215 µM (active) | 0.129 µM (active) | 0.19 µM (active) | 0.314 µM (active) | 0.0187 µM (active) | 0.248 µM (active)
Cc1cc(O)no1 [HYMEXAZOL] | > 100 µM (inactive) | – | > 100 µM (inactive) | > 100 µM (inactive) | – | > 100 µM (inactive) | > 100 µM (inactive) | > 100 µM (inactive) | > 100 µM (inactive) | > 100 µM (inactive) | > 100 µM (inactive) | > 100 µM (inactive) | > 100 µM (inactive) | > 100 µM (inactive) | > 100 µM (inactive) | – | > 100 µM (inactive) | > 100 µM (inactive) | > 100 µM (inactive) | > 100 µM (inactive)
